{"source": "patent US8071287B2", "about": "“Pharmaceutical and therapeutic applications relating to a type 9 adenylyl cyclase Polymorphism in asthma and reversible bronchial obstruction” (priority 2005, dated 2011)", "key": {"β2AR": {"tested_on": "β2AR", "test": "125I-CYP radioligand binding for endogenous β2AR density in transfected A431 cells", "assay_type": "cell-based", "experimental": "The cDNAs for Ile772 (also referred to as WT) and Met772 coding regions were generated from human lymphocyte RNA, subcloned into pCNDA3, and transfections of A431 cells carried out as described. Selection of positive clones was carried out in media containing 400 μg/ml G418. Expression of AC9 was determined in individual clonal lines by Western blots (see below). A431 cells were grown in monolayers in Dulbecco's modified Eagle's medium with 4 mM L-glutamate 10% fetal bovine serum, 100 U/ml penicillin and 100 μg/ml streptomycin, at 37° in a 5% CO2 atmosphere. In some studies, cells at 90% confluency in the absence of serum were treated with 500 nM dexamethasone for 12 hours and then utilized as described below.\nTransfected A431 cells were washed three times with phosphate-buffered saline (PBS), detached by scraping in 5 mM Tris, pH 7.4, 2 mM ethylenediaminetetracetic acid (EDTA) buffer, and centrifuged at 30,000 g for 10 min. […] Nonspecific binding was determined with 1 μM propranolol. […] AC9 expression in these transfected cell lines was assessed by quantitative immunoblotting so as to select lines expressing Ile772 or Met772 at the same levels for pharmacologic studies, and to ascertain if corticosteroid treatment altered expression. […] Relative levels of AC9 expression were subsequently determined using ScanAnalysis software (BioSoft, Cambridge, UK)."}, "WT (Ile772) AC9": {"molecular_target": "T1, WT (Ile772) AC9 (Homo sapiens, UniProt O60503)", "T1 construct": "expressed in transfected cells", "T1 sequence (O60503 1-1353)": "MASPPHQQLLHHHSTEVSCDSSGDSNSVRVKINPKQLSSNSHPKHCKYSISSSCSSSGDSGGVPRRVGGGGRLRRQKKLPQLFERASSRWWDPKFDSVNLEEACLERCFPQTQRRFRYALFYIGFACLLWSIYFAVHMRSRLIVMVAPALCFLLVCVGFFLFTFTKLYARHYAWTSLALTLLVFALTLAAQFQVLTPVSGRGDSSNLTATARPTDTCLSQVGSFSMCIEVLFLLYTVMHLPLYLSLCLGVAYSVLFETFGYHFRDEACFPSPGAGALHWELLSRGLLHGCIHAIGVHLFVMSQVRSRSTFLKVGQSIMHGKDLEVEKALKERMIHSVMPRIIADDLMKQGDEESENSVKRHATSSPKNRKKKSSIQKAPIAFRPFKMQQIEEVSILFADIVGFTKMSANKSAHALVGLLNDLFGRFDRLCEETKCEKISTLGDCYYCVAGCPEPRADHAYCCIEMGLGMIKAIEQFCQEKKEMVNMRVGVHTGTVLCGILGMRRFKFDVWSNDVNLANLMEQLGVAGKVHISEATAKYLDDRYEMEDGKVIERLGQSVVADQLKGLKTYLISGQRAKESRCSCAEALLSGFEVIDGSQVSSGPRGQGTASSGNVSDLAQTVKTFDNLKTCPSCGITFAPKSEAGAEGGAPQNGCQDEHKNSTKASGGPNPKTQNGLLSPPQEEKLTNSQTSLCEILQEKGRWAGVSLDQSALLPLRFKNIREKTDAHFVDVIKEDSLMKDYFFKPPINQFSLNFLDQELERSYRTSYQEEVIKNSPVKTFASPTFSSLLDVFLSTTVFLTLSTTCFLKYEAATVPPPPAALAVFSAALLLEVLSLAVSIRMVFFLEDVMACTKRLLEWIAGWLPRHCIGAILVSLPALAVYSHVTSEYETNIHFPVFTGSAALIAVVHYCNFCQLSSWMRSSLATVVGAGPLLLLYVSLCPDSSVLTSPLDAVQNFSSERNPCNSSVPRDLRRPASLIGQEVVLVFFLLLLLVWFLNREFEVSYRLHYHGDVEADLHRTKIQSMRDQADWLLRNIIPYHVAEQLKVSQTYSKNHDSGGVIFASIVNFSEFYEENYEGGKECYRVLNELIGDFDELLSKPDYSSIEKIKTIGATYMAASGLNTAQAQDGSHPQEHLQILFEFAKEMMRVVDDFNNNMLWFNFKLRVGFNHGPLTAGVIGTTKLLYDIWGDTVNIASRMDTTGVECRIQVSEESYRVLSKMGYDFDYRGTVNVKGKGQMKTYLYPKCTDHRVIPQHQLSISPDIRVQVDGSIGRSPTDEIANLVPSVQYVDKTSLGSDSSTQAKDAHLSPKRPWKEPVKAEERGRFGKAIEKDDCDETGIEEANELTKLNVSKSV", "test": "Adenylyl cyclase activities in membranes of A431 cells transfected with WT (Ile772) AC9", "assay_type": "biochemical", "conditions": "for albuterol stimulated adenylyl cyclase activities: WT cells, 10 μM albuterol, N=5", "source_text": "(§1) The WT coding sequence for the human AC9 gene is considered that of GenBank accession number DQ005545. With the adenine of the initiator codon being considered nucleotide 1, a polymorphism consisting of an […] which results in […] (accession number DQ008441) was previously described in Small et al, Pharmacogenetics, 13, 535-541, supra. The cDNAs for […] (also referred to as WT) and […] coding regions were generated from human lymphocyte RNA, subcloned into pCNDA3, and transfections of A431 cells carried out as described. Selection of positive clones was carried out in media containing 400 μg/ml G418. Expression of AC9 was determined in individual clonal lines by Western blots (see below). A431 cells were grown in monolayers in Dulbecco's modified Eagle's medium with 4 mM […] 10% fetal bovine serum, 100 U/ml penicillin and 100 μg/ml streptomycin, at 37° in a 5% CO2 atmosphere. In some studies, cells at 90% confluency in the absence of serum were treated with 500 nM dexamethasone for 12 hours and then utilized as described below. […] M et al., “Beta1-adrenergic receptor polymorphisms confer differential function and predisposition to heart failure” Nat. Med., 9, 1300-1305 (2003). […] [^32P] cAMP was separated from […] by chromatography over alumina columns. The [^3H] cAMP standard included in the stop buffer accounted for individual column recovery."}, "Met772 AC9": {"molecular_target": "T2, Met772 AC9 (Homo sapiens, UniProt O60503, I772M)", "T2 construct": "expressed in transfected cells", "T2 sequence (O60503 1-1353 I772M)": "T1 sequence (O60503 1-1353) with I772M", "test": "Adenylyl cyclase activities in membranes of A431 cells transfected with Met772 AC9", "assay_type": "biochemical", "conditions": "10 μM albuterol; for albuterol stimulated adenylyl cyclase activities: Met772 cells, N=5; for stimulated adenylyl cyclase activities of Met772 compared to WT: no corticosteroid, 1.8 mM MnCl2 or 10 mM NaF", "source_text": "as §1"}, "asthmatic children": {"tested_on": "asthmatic children", "test": "CAMP clinical cohort: bronchodilator response (FEV1) stratified by AC9 genotype", "assay_type": "in vivo, human", "conditions": "for Bronchodilator response at baseline: at randomization", "source_text": "The study cohort consisted of pediatric patients who participated in the Childhood Asthma Management Program (CAMP). The study was a multicenter, randomized, trial comparing regularly scheduled inhalation treatment with the corticosteroid budesonide, the putative mast-cell “stabilizer” nedocromil, and placebo. The study design has been previously published in “Long-term effects of budesonide or nedocromil in children with asthma” N. Engl. J. Med., 343, 1054-1063 (2000). […] Once per year a methacholine challenge was performed to ascertain bronchial hyperresponsiveness. The current study utilized archived DNA from patients who participated in the CAMP DNA Ancillary Study. Because of potential population stratification issues (the allele frequency of Met772 is ˜0.30 in Caucasians and ˜0.15 in African Americans) and the small number of African American children enrolled in CAMP (14%), the current study was confined to Caucasian children. […] The analysis was focused then, on 436 children, with follow-up through 48 months, the last time point in which nearly complete measures were obtained for the cohort. The subjects' parents provided informed consent, and the study was approved by the Institutional Review Boards of each participating center.\nThe AC9 SNP at nucleotide 2316 was genotyped via a SEQUENOM MassARRAY MALDI-TOF mass spectrometer (Sequenom, San Diego, Calif.) for analysis of unlabeled single-base extension minisequencing reactions with a semiautomated primer design program (Spectro[…], Sequenom). […] To assess for possible population stratification, a random panel of 49 SNPs across the genome (“stratification SNPs”), obtained through the SNP Consortium (TSC) database was also genotyped. SNPs were chosen that are widely distributed throughout the genome and exclude promoters, genomic UTRs, exons, and introns of known genes.\nBronchodilator response is defined as FEV1 after bronchodilator minus FEV1 before bronchodilator divided by FEV1 before bronchodilator times 100 [(Post-FEV1−Pre-FEV1)/(Pre-FEV1)×100]. Longitudinal models of bronchodilator response, using repeated measures modeling with time as a linear effect and an unstructured covariance matrix, are used. These models evaluate change in bronchodilator response beginning at the 2 month follow-up visit, allowing for evaluation of change based on treatment type. Univariate and multivariable analyses adjusting for age, sex, and bronchodilator response at baseline are performed, under the assumption of a dominant model. To test for interaction between steroid treatment and Ile772Met genotypic status, treatment specific strata was evaluated and included interaction terms in the models. A “mean bronchodilator” response is also derived by taking all of the observations over the 4 years and dividing by the number of visits. This value was used as the primary outcome in the haplotypic assessment of interactions between the β2AR locus and the AC9 polymorphism."}, "[1]": {"conditions": "after dexamethasone treatment (500 nM)"}}, "note": "Substitutions are numbered along the chain they refer to."}
{"compound": "C[C@@H]1C[C@H]2[C@@H]3CCC4=CC(=O)C=C[C@]4(C)[C@@]3(F)[C@@H](O)C[C@]2(C)[C@@]1(O)C(=O)CO", "note": "[dexamethasone]", "values": [{"measurement": "β2AR expression", "setting": "β2AR; Met772 AC9 line after corticosteroid (dexamethasone) exposure, untreated 66±8.9", "value": "109 ± 9.0", "unit": "fmol/mg"}, {"measurement": "β2AR expression", "setting": "β2AR; WT AC9 line after corticosteroid (dexamethasone) exposure, untreated 51±6.2", "value": "103 ± 7.8", "unit": "fmol/mg"}]}
{"compound": "CC(C)(C)NCC(O)c1ccc(O)c(CO)c1", "note": "(stereo not drawn) [albuterol]", "values": [{"measurement": "albuterol stimulated adenylyl cyclase activities", "setting": "WT (Ile772) AC9; [1]", "value": "33 ± 2.5", "unit": "pmol/min/mg"}, {"measurement": "albuterol stimulated adenylyl cyclase activities", "setting": "WT (Ile772) AC9; before dexamethasone treatment", "value": "27 ± 2.1", "unit": "pmol/min/mg"}, {"measurement": "increase of albuterol-stimulated adenylyl cyclase response", "setting": "WT (Ile772) AC9; cells expressing Ile772 cultured in the presence of glucocorticoid", "value": "~20", "unit": "%"}, {"measurement": "albuterol stimulated adenylyl cyclase activities", "setting": "Met772 AC9; [1]", "value": "43 ± 3.4", "unit": "pmol/min/mg"}, {"measurement": "albuterol stimulated adenylyl cyclase activities", "setting": "Met772 AC9; before dexamethasone treatment", "value": "24 ± 1.3", "unit": "pmol/min/mg"}, {"measurement": "stimulated adenylyl cyclase activities of Met772 compared to WT", "setting": "Met772 AC9", "value": "not different between the lines"}, {"measurement": "Bronchodilator response at baseline", "setting": "asthmatic children; Met772 carriers", "value": "11.17 ± 11.24"}, {"measurement": "average bronchodilator response (±SE), univariate", "setting": "asthmatic children; Overall Cohort, Met772, 4 year follow-up", "value": "9.23 ± 0.34", "unit": "%"}, {"measurement": "average bronchodilator response (±SE), multivariate", "setting": "asthmatic children; Overall Cohort, Met772, adjusted for age, gender, inhaled steroid usage, baseline response, time", "value": "6.17 ± 0.92", "unit": "%"}, {"measurement": "average bronchodilator response (±SE), univariate", "setting": "asthmatic children; Overall Cohort, Wildtype, 4 year follow-up", "value": "9.41 ± 0.48", "unit": "%"}, {"measurement": "average bronchodilator response (±SE), univariate", "setting": "asthmatic children; Placebo Group (no inhaled steroid), Met772", "value": "9.94 ± 0.61", "unit": "%"}, {"measurement": "average bronchodilator response (±SE), univariate", "setting": "asthmatic children; Placebo Group (no inhaled steroid), Wildtype", "value": "10.92 ± 0.79", "unit": "%"}, {"measurement": "average bronchodilator response (±SE), univariate", "setting": "asthmatic children; Steroid Group (inhaled budesonide), Met772", "value": "8.72±0.54", "unit": "%"}, {"measurement": "average bronchodilator response (±SE), multivariate", "setting": "asthmatic children; Steroid Group (inhaled budesonide), Met772, adjusted", "value": "5.78 ± 1.49", "unit": "%"}, {"measurement": "average bronchodilator response (±SE), univariate", "setting": "asthmatic children; Steroid Group (inhaled budesonide), Wildtype", "value": "6.76±0.69", "unit": "%"}, {"measurement": "Bronchodilator response at baseline", "setting": "asthmatic children; WT patients", "value": "10.32 ± 9.18"}]}
{"compound": "[F-].[Na+]", "note": "[NaF]", "values": [{"measurement": "stimulated adenylyl cyclase activities of Met772 compared to WT", "setting": "Met772 AC9", "value": "decreased compared to WT"}]}
{"compound": "[Cl][Mn][Cl]", "note": "[MnCl2]", "values": [{"measurement": "stimulated adenylyl cyclase activities of Met772 compared to WT", "setting": "Met772 AC9", "value": "decreased compared to WT"}]}
{"compound": "CCCC1O[C@@H]2C[C@H]3[C@@H]4CCC5=CC(=O)C=C[C@]5(C)[C@H]4[C@@H](O)C[C@]3(C)[C@]2(C(=O)CO)O1", "note": "(stereo partly drawn) [budesonide]", "values": [{"measurement": "increase in bronchodilation response of Met772 carriers compared to wild type", "setting": "asthmatic children; on inhaled budesonide, univariate", "value": "~2", "unit": "percentage point"}]}
